Reference: publication PMC10058425, “Exploring pta Alternatives in the Development of Ruthenium–Arene Anticancer Compounds” (Molecules, 2023)
Where “and” joins values, the source holds several entries; their conditions need not be identical. Equal values may be shown once.

Key:
[1] = target: Glutathione S-transferase from horse liver (GST); assay: GST inhibition assay; type: biochemical; settings: for Ki: Dixon plots, substrate 200, 400, 800 μM; for IC50 / GST IC50: substrate 1-chloro-2,4-dinitrobenzene, pH 6.5, 25 °C
Procedure: The activity of GST was measured according to the method described by Habig et al. (1974). Stock solutions of 1–8 (1 mg/mL) were prepared in 100% methanol (MeOH). Then, stock solutions of 1–8 and negative controls were added to the wells and progressively diluted in 100 mM sodium phosphate buffer (pH 6.5) at a final volume of 50 μL. 1-Chloro-2,4-dinitrobenzene (Sigma-Aldrich Co., St. Louis, MO, USA) was dissolved in EtOH to obtain a 50 mM solution, then diluted with 100 mM sodium phosphate buffer (pH 6.5) to a final concentration of 4 mM. This solution (50 μL) and solution of 2 mM reduced glutathione (100 μL), dissolved in the same buffer were added into the microtiter plate wells. Glutathione S-transferase from horse liver (GST; Sigma-Aldrich Co., St. Louis, MO, USA) was used as the source of enzyme and dissolved in 100 mM sodium phosphate buffer (pH 6.5). 50 μL of enzyme solution was added into wells to start the reaction. The final enzyme concentration was 0.044 U/mL. A blank reaction was performed with the appropriate dilution of MeOH. The reaction was followed spectrophotometrically at 340 nm and at 25 °C for 4 min using a Cytation 3 cell imaging multi-mode reader from BioTek (BioTek, Winooski, VT, USA). Each measurement was repeated at least three times. For determination of inhibitory constants (Ki), the kinetics were monitored using three different final substrate concentrations (200, 400, and 800 μM, respectively).

[2] = tested on: MCF7 (breast adenocarcinoma); assay: MTT cell viability assay, MCF7; type: cell-based, Human; settings: 24 h of incubation, read-out: IC50 ± SD on MCF7
Procedure: (§1) Cell viability studies were determined by the MTT assay for complexes 1–8 toward MCF7 (breast adenocarcinoma), MDA-MB-231 (triple-negative breast adenocarcinoma), MG-63 (osteosarcoma), and HT-29 (colorectal carcinoma) after 24 h of incubation with new ruthenium compounds. Cisplatin was used as antitumor clinical reference. The three solid tumors selected for the cell viability study were chosen due to high incidence and the low efficacy of the current treatments. The two breast cancer cell lines used in this study represent two of the most relevant subtypes of breast cancer (MCF7: receptor-estrogen-positive breast cancer subtype; MDA-MB-231: triple-negative breast cancer subtype).
(§2) Human breast cancer cell lines (MCF-7 and MDA-MB-231), human bone cancer cell line (MG-63), and human colorectal cancer cell line (HT-29) were grown in Dulbecco’s modified Eagle’s medium (DMEM) containing 10% fetal bovine serum (FBS), 100 IU/mL penicillin, and 100 μg/mL streptomycin at 37 °C in 5% CO2 atmosphere. These cancer cell lines were grown in a […] until they reached 70–80% confluence. Then, the cells were subcultured using TrypLE TM. For experiments, cells were grown in multi-well plates. Dulbecco’s modified Eagle’s medium (DMEM) and TrypLE^TM were purchased from Gibco (Gaithersburg, MD, USA), and fetal bovine serum (FBS) was purchased from Internegocios (Argentina). After 24 h, the monolayers were washed with DMEM and incubated under different conditions according to the experiments. Tissue culture materials were purchased from Corning (Princeton, NJ, USA).
(§3) The 3-(4,5-dimethylthiazol-2-yl)-2,5-diphenyltetrazolium bromide (MTT) assay was performed according to Mosmann. Briefly, cells were seeded in a 96-well dish, allowed to attach for 24 h, and treated with different concentrations of complexes […] (2.5–100 µM) at 37 °C for 24 h. Afterward, the medium was changed and the cells were incubated with 0.5 mg/mL MTT under normal culture conditions for 3 h. Cell viability was marked by conversion of the tetrazolium salt MTT to a colored formazan by mitochondrial dehydrogenases. Color development was measured spectrophotometrically with a microplate reader multiskan FC (Thermo scientific) at 570 nm after cell lysis in DMSO (100 µL per well). Cell viability was plotted as the percentage of the control value.

[3] = tested on: HT-29 (colorectal carcinoma); assay: MTT cell viability assay, HT-29; type: cell-based, Human; settings: for IC50: 24 h of incubation, read-out: IC50 ± SD on HT-29
Procedure: as §1, §2, §3

MG-63 (osteosarcoma) = assay: MTT cell viability assay, MG-63; type: cell-based, Human; settings: 24 h of incubation, read-out: IC50 ± SD on MG-63
Procedure: as §1, §2, §3

[4] = tested on: MDA-MB-231 (triple-negative breast adenocarcinoma); assay: MTT cell viability assay, MDA-MB-231; type: cell-based, Human; settings: for IC50: MTT, 24 h of incubation, read-out: IC50 ± SD on MDA-MB-231
Procedure: as §1, §2, §3

[5] = tested on: MCF7, MDA-MB-231, MG-63, and HT-29 cell lines; assay: MTT cell viability assay, all cell lines tested; type: cell-based, Human; settings: 24 h, span over all cell lines, read-out: IC50 in all cancer cell lines tested
Procedure: as §1
Human breast cancer cell lines (MCF-7 and MDA-MB-231), human bone cancer cell line (MG-63), and human colorectal cancer cell line (HT-29) were grown in Dulbecco’s modified Eagle’s medium (DMEM) containing 10% fetal bovine serum (FBS), 100 IU/mL penicillin, and 100 μg/mL streptomycin at 37 °C in 5% CO2 atmosphere. These cancer cell lines were grown in a […] until they reached 70–80% confluence. […]
The 3-(4,5-dimethylthiazol-2-yl)-2,5-diphenyltetrazolium bromide (MTT) assay was performed according to Mosmann. […] Color development was measured spectrophotometrically with a microplate reader multiskan FC (Thermo scientific) at 570 nm after cell lysis in DMSO (100 µL per well). […]

C1=CC2=[S][Ru+]([As](c3ccccc3)(c3ccccc3)c3ccccc3)[O]N2C=C1.Cc1ccc(C(C)C)cc1.F[P-](F)(F)(F)(F)F [Compound 8, [(η^6-p-cym)Ru(κ^2-O,S-C5H4NOS)(AsPh3)]PF6] showed a Ki [1] of 0.74 µM, an IC50 [1] of 2.15 ± 0.4 µM and an IC50 [2] of 35.3 ± 12.1 µM. It also gave an IC50 ([3]; MTT) of 40.8 ± 8.5 µM, an IC50 (MG-63 (osteosarcoma)) of 50.3 ± 2.5 µM and an IC50 [4] of 35.8 ± 11.4 µM. For the same molecule, the IC50 [5] was 35 to 50 µM.
C1=CC2=[S][Ru+]([P](Oc3ccccc3)(Oc3ccccc3)Oc3ccccc3)[O]N2C=C1.Cc1ccc(C(C)C)cc1.F[P-](F)(F)(F)(F)F [Compound 7, [(η^6-p-cym)Ru(κ^2-O,S-C5H4NOS)(P(OPh)3)]PF6] showed a Ki [1] of 3.67 µM, an IC50 [1] of 2.88 ± 0.9 µM and an IC50 [2] of 33.7 ± 6.3 µM. For the same molecule, the “anticancer effect on colorectal cancer cells” value ([3]; MTT, 24 h) was “did not exert anticancer effect”, the IC50 ([3]; MTT) was over 100 µM and the IC50 (MG-63 (osteosarcoma)) was 28.2 ± 2.5 µM. For the same molecule, the IC50 [4] was 18 ± 1.7 µM.
With CCO[P](OCC)(OCC)[Ru+]1[O]N2C=CC=CC2=[S]1.Cc1ccc(C(C)C)cc1.F[P-](F)(F)(F)(F)F [Compound 4, [(η^6-p-cym)Ru(κ^2-O,S-C5H4NOS)(P(OEt)3)]PF6] the IC50 [1] was 59.5 ± 0.9 µM, the IC50 [2] was 45 µM and 45.5 µM and the IC50 ([3]; MTT) was over 100 µM. It also gave an IC50 (MG-63 (osteosarcoma)) of over 100 µM and an IC50 [4] of over 100 µM.
With C1N2CN3CN1CP(C2)C3.Cc1ccc(C(C)C)cc1.F[P-](F)(F)(F)(F)F.[O-]n1ccccc1=S.[Ru+2] [Compound 2, [(η^6-cymene)(Ru)(pyrithionato)(pta)]PF6] the “GST IC50” value [1] was “/ (no inhibitory activity in tested concentration range (<125 µg/mL))”, the IC50 [2] was over 100 µM and the IC50 ([3]; MTT) was over 100 µM. It also gave an IC50 (MG-63 (osteosarcoma)) of over 100 µM and an IC50 [4] of over 100 µM.
For N.N.[Cl][Pt][Cl] [Cisplatin, reference compound], the IC50 [2] was 42 ± 3.2 µM, the IC50 ([3]; MTT) was 180 ± 6 µM and the IC50 (MG-63 (osteosarcoma)) was 39 ± 1.8 µM. It also gave an IC50 [4] of 131 ± 18 µM.
In the case of C1=CC2=[S][Ru+]([P](c3ccccc3)(c3ccccc3)c3ccccc3)[O]N2C=C1.Cc1ccc(C(C)C)cc1.F[P-](F)(F)(F)(F)F [Compound 6, [(η^6-p-cym)Ru(κ^2-O,S-C5H4NOS)(PPh3)]PF6], the Ki [1] is reported as 1.3 µM, the IC50 [1] is reported as 11.8 ± 1.1 µM and the IC50 [2] is reported as 21.2 ± 3.2 µM. For the same molecule, the IC50 ([3]; MTT) was 30.2 ± 1.4 µM, the “IC50 fold lower than cisplatin on HT-29 cells” value ([3]; versus cisplatin) was “six-fold” and the IC50 (MG-63 (osteosarcoma)) was 21.2 ± 1.7 µM. The IC50 [4] was 10.8 ± 1 µM and the “IC50 fold lower than cisplatin on MDA-MB-231 cells” value ([4]; versus cisplatin) was “twelve-fold”.
With “[(η^6-p-cym)Ru(κ^2-O,S-C5H4NOS)(cap)]PF6 [Compound 3]” the “GST IC50” value [1] was “/ (no inhibitory activity in tested concentration range (<125 µg/mL))”, the IC50 [2] was over 100 µM and the IC50 ([3]; MTT) was over 100 µM. The IC50 (MG-63 (osteosarcoma)) was over 100 µM and the IC50 [4] was over 100 µM.
Cc1ccc(C(C)C)cc1.[Cl-].[O-]n1ccccc1=S.[Ru+2] [Compound 1, [(η^6-cymene)(Ru)(pyrithionato)Cl]] gave a Ki [1] of 0.75 µM, an IC50 [1] of 3.15 ± 2.5 µM and an IC50 [2] of over 100 µM. The IC50 ([3]; MTT) was over 100 µM, the IC50 (MG-63 (osteosarcoma)) was over 100 µM and the IC50 [4] was over 100 µM.
